Experimental data as given in PubChem BioAssay (NCI).
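1) Cells in 96-well plates. 2) Compound, 48 h, 5 concentrations. 3) Linear interpolation between surrounding doses. 4) Unreached endpoint = highest concentration. GI50 = concentration required for 50% inhibition of growth. At the TGI there is no net growth.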

Assays:
Test in all cases: DTP human tumour cell line panel, 48 h
MCF7 breast = test system: MCF7 breast
A549 NSCLC = test system: A549 NSCLC
COLO 205 colon = test system: COLO 205 colon
NCI-H460 lung = test system: NCI-H460 lung
MDA-MB-435 = test system: MDA-MB-435
MOLT-4 leukemia = test system: MOLT-4 leukemia
SF-295 CNS = test system: SF-295 CNS
IGROV1 ovarian = test system: IGROV1 ovarian
OVCAR-4 ovarian = test system: OVCAR-4 ovarian
NCI/ADR-RES ovarian = test system: NCI/ADR-RES ovarian

| Structure (SMILES) | TGI (MCF7 breast) [µM] | TGI (A549 NSCLC) [µM] | TGI (COLO 205 colon) [µM] | TGI (NCI-H460 lung) [µM] | TGI (MDA-MB-435) [µM] | TGI (MOLT-4 leukemia) [µM] | TGI (SF-295 CNS) [µM] | TGI (IGROV1 ovarian) [µM] | TGI (OVCAR-4 ovarian) [µM] | TGI (NCI/ADR-RES ovarian) [µM] | GI50 (MDA-MB-435) [µM] |
| --- | --- | --- | --- | --- | --- | --- | --- | --- | --- | --- | --- |
| CCOC(=O)c1c(C)n(Cc2ccccc2)c2c1cc(O)c1[nH]c3c(c12)CCCC3 | 13.3 | 19.6 | 18.9 | 7.32 | 24.4 | 12.6 | 11.5 | 15.6 | 4.08 | 18.5 | – |
| C#CC(O)/C=C/CCCCCCC#CC/C=C\CC#CCCCCCC/C=C/C(O)C#C (stereo unspecified) | 25.9 | 10.2 | 4.29 | 16.3 | 5.4 | 0.371 | 26.9 | 2.17 | 10.1 | 8.26 | – |
| COC(=O)C1OC(O[C@H]2CC[C@]3(C)[C@H]4CC=C5[C@@H]6CC(C)(C)CC[C@]6(C(=O)OC)[C@H](O)C[C@@]5(C)[C@]4(C)CC[C@H]3C2(C)C)C(O)C(O)C1O (stereo partly specified) | 23.5 | 17.4 | 17.5 | 22.7 | 27.7 | 25.2 | 23.1 | 24.8 | 19.7 | 26.3 | – |
| COc1ccc(CNc2nc(NCc3ccc(OC)cc3)nc(Nc3ccccc3)n2)cc1 | > 100 | > 100 | > 100 | > 100 | 5.7 | > 100 | 8.83 | > 100 | > 100 | > 100 | – |
| CC(=O)Oc1ccn2nc(C)c(Br)c2c1Br | 36.1 | 57.6 | 38 | 53.1 | 35.2 | 34.9 | > 89.3 | > 72.2 | 30.6 | > 100 | – |
| Cc1ccc(C(=O)CC(Cl)=C(Cl)Cl)cc1 | > 100 | > 100 | > 100 | > 100 | > 100 | 47 | > 100 | > 100 | > 100 | > 100 | – |
| COC(=O)NCCc1[nH]nc2c1C(=O)C=C(OC)C2=O | 48.1 | > 100 | 52.8 | > 100 | 27.7 | 46.4 | 32.2 | 34.9 | 35.5 | > 100 | – |
| COc1nn(Cc2ccccc2F)c2ccc([N+](=O)[O-])cc12 | > 100 | > 100 | > 100 | > 100 | > 23.6 | > 100 | > 100 | > 100 | > 100 | > 100 | – |
| Cc1cccc2sc(NC(=O)c3cc([N+](=O)[O-])ccc3Cl)nc12 | > 100 | 51.7 | > 71.3 | > 100 | 12.6 | > 100 | > 100 | 10.7 | > 100 | > 24.2 | – |
| Cn1c(-c2csc(-c3ccc(Cl)cc3)n2)n[nH]c1=S | > 100 | > 100 | > 100 | > 100 | > 100 | > 100 | 34.3 | 38 | 50.9 | > 100 | – |
| COC(=O)C(NC(=O)CNC(=O)CSc1nnc(COc2ccc(Cl)cc2)n1-c1ccccc1)C(C)C (stereo unspecified) | 30.4 | > 100 | 34.1 | 36.2 | 47.4 | > 100 | 34.5 | 50.1 | 57.1 | > 100 | – |
| Cc1cc2c(cc1O)CC[C@@H]1[C@@H]2CC[C@]2(C)[C@@H](O)CC[C@@H]12 | 26.1 | > 100 | 32.5 | 29.8 | 3.65 | 17.7 | 20.3 | 45.4 | 29.2 | 27.2 | 1.8 |
| C[n+]1c2ccccc2c(CNC(CCC(N)=O)C(=O)O)c2ccccc21 (stereo unspecified) | 7.73 | 11.8 | 2.14 | 11.8 | 9.95 | 10 | 16 | 13.4 | 9.24 | 14 | – |
| O=C(O)c1c(-c2c3ccc(=O)cc-3oc3cc(O)ccc23)cc2ccccc2c1-c1ccccc1 | > 100 | > 100 | > 100 | > 100 | > 100 | 8.37 | > 100 | > 100 | > 100 | > 100 | – |
| O=[N+]([O-])c1ccc(Cl)cc1C1ON=C(c2ccccc2)N1C12CC3CC(CC(C3)C1)C2 (stereo unspecified) | > 100 | > 100 | > 100 | > 100 | > 100 | > 100 | > 100 | > 100 | > 100 | > 100 | – |
| N[C@@H]1c2c(Br)sc(Br)c2[C@H](O)[C@@H]1O | > 100 | > 100 | > 100 | > 100 | > 100 | > 100 | > 100 | > 100 | > 100 | > 100 | – |
| O=[N+]([O-])CC(SCc1ccccc1)c1ccc2c(c1)OCO2 (stereo unspecified) | 9.73 | 21.8 | 21.1 | 37.9 | 7.93 | 21.1 | 23.1 | 12.7 | 27.1 | 28.8 | – |

| Structure (SMILES) | TGI (MCF7 breast) [µM] | TGI (A549 NSCLC) [µM] | TGI (COLO 205 colon) [µM] | TGI (NCI-H460 lung) [µM] | TGI (MDA-MB-435) [µM] | TGI (MOLT-4 leukemia) [µM] | TGI (SF-295 CNS) [µM] | TGI (IGROV1 ovarian) [µM] | TGI (OVCAR-4 ovarian) [µM] | TGI (NCI/ADR-RES ovarian) [µM] | GI50 (MDA-MB-435) [µM] |
| --- | --- | --- | --- | --- | --- | --- | --- | --- | --- | --- | --- |
| COC(=O)C1=NN2c3ccccc3C(=O)OCCC2C1 (stereo unspecified) | > 100 | > 100 | > 100 | > 100 | > 100 | > 100 | > 100 | > 100 | > 100 | > 100 | – |
| Cc1ccc(S(=O)(=O)N2CCSCCSCCN(S(=O)(=O)c3ccc(C)cc3)CCN(S(=O)(=O)c3ccc(C)cc3)CC2)cc1 | > 100 | > 100 | > 100 | > 100 | > 100 | > 100 | > 100 | > 100 | > 100 | > 100 | – |
| C=C(C)CCC1CCCCC(CN(C)C)C1=O (stereo unspecified) | > 100 | > 100 | > 100 | > 100 | > 100 | > 100 | > 100 | > 100 | > 100 | > 100 | – |
| C=CCN1C(=O)/C(=C/c2ccc(C)cc2)N=C1SC/C=C/C | > 100 | > 100 | 90.5 | > 100 | > 100 | 37.8 | > 100 | > 100 | > 100 | > 100 | – |
| O=C1Oc2ccccc2C(=O)/C1=C/N1C(=O)/C(=C/c2ccc([N+](=O)[O-])cc2)SC1=S | > 100 | > 100 | 53.2 | 57.8 | 50.6 | > 100 | 68 | > 100 | > 100 | 95.7 | – |
| Cc1cc(C)c2c(n1)S(=O)(=O)N(CCCN1CCN(c3cccc(C(F)(F)F)c3)CC1)/C(=C(\O)c1ccccc1)C2=O | 56.7 | > 100 | 14.7 | 22.3 | 82.8 | 10.8 | 19.7 | 20.5 | 63.9 | 22.4 | – |
| N#CC1C(=O)Nc2sc(C(=O)c3ccc(Br)cc3)c(N)c2C12CCCCC2 (stereo unspecified) | > 100 | > 100 | 40.1 | > 100 | 58.9 | > 100 | > 100 | > 100 | > 100 | > 100 | – |
| NC1CC2C3CCC2C1C3=O (stereo unspecified) | > 100 | > 100 | > 100 | > 100 | > 100 | > 100 | > 100 | > 100 | > 100 | > 100 | – |
| CC1=C(C(=O)OCCO[N+](=O)[O-])C(c2ccccc2C(F)(F)F)C(C(=O)OC(C)C)=C(C)N1 (stereo unspecified) | 75.1 | > 100 | 28.4 | 58.6 | 53.5 | > 100 | 26.9 | 42.8 | 93.4 | 57.8 | – |
| N=c1c2c3n(c4c(=O)n(-c5ccccc5)c(=S)n(c(=O)n1-c1ccccc1)c24)CCCCC3 | > 100 | > 100 | > 100 | > 100 | > 100 | > 71.6 | > 100 | > 100 | > 100 | > 100 | – |
| Oc1[nH]c2ccccc2c1N=NC1=NCCCCN1 | > 100 | > 100 | > 100 | > 100 | > 100 | > 100 | > 100 | > 100 | > 100 | > 100 | – |
| CC1(C)OCC2OC3([C@H](O)CCO)OC(C)(C)OC3C2O1 (stereo partly specified) | > 100 | > 100 | > 100 | > 100 | > 100 | > 100 | > 100 | > 100 | > 100 | > 100 | – |
| CCOC(=O)CCC(C(=O)OCC)n1nc2ccc(Nc3c(C)[n+]([O-])c4cc(Cl)ccc4[n+]3[O-])cc2n1 (stereo unspecified) | > 100 | > 100 | > 100 | 67.4 | > 100 | > 100 | > 100 | > 100 | > 100 | > 100 | – |
| O=C(CCCCCCCCC(=O)NN1C(=O)/C(=C\c2ccc(O)c(O)c2)SC1c1c(O)ccc2ccccc12)NN1C(=O)C(=Cc2ccc(O)c(O)c2)SC1c1c(O)ccc2ccccc12 (stereo unspecified) | > 100 | > 37.1 | 73.5 | > 100 | > 100 | > 29.8 | > 100 | > 55.5 | > 100 | > 100 | – |
| CCC(=O)OCc1ccc2oc(=O)c(C(=O)Oc3cncc(Cl)c3)cc2c1 | > 100 | > 100 | > 100 | > 100 | > 100 | > 100 | > 100 | > 100 | > 100 | > 100 | – |
| COc1ccc(-c2cc(-c3ccc(Nc4ccnc5cc(C(F)(F)F)ccc45)cc3)[nH]c(=O)c2C#N)c2ccccc12 | > 100 | > 100 | > 58.4 | > 100 | > 56.1 | > 100 | > 100 | > 100 | > 100 | > 100 | – |
